Laboratory results reported in PubChem BioAssay (NCI).
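GI50 marks 50% less growth. TGI is the concentration that stops growth completely.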

Experiments:
Test in all cases: NCI-60 cell line screen, 384-well format
MDA-MB-435 melanoma = tested on: MDA-MB-435 melanoma
COLO 205 colon = tested on: COLO 205 colon
SF-295 CNS = tested on: SF-295 CNS
IGROV1 ovarian = tested on: IGROV1 ovarian
A498 renal = tested on: A498 renal
EKVX NSCLC = tested on: EKVX NSCLC
T-47D breast = tested on: T-47D breast
PC-3 prostate = tested on: PC-3 prostate
UO-31 renal = tested on: UO-31 renal
MALME-3M melanoma = tested on: MALME-3M melanoma
SN12C renal = tested on: SN12C renal
HS 578T breast = tested on: HS 578T breast
UACC-62 melanoma = tested on: UACC-62 melanoma
HOP-62 NSCLC = tested on: HOP-62 NSCLC
UACC-257 melanoma = tested on: UACC-257 melanoma
SK-MEL-28 melanoma = tested on: SK-MEL-28 melanoma
786-0 renal = tested on: 786-0 renal
TK-10 renal = tested on: TK-10 renal
HT29 colon = tested on: HT29 colon
NCI-H226 lung = tested on: NCI-H226 lung
U251 glioblastoma = tested on: U251 glioblastoma
OVCAR-4 ovarian = tested on: OVCAR-4 ovarian
MOLT-4 leukemia = tested on: MOLT-4 leukemia
CCRF-CEM leukemia = tested on: CCRF-CEM leukemia
RXF 393 renal = tested on: RXF 393 renal
MDA-MB-468 breast = tested on: MDA-MB-468 breast
SF-268 CNS = tested on: SF-268 CNS
OVCAR-8 ovarian = tested on: OVCAR-8 ovarian
BT-549 breast = tested on: BT-549 breast
NCI-H322M lung = tested on: NCI-H322M lung
NCI/ADR-RES ovarian = tested on: NCI/ADR-RES ovarian
SK-MEL-5 melanoma = tested on: SK-MEL-5 melanoma
SR leukemia = tested on: SR leukemia
CAKI-1 renal = tested on: CAKI-1 renal
SNB-75 CNS = tested on: SNB-75 CNS
M14 melanoma = tested on: M14 melanoma
HCT-15 colon = tested on: HCT-15 colon
KM12 colon = tested on: KM12 colon
K-562 leukemia = tested on: K-562 leukemia
SF-539 CNS = tested on: SF-539 CNS
RPMI-8226 leukemia = tested on: RPMI-8226 leukemia
LOX IMVI melanoma = tested on: LOX IMVI melanoma
HCC-2998 colon = tested on: HCC-2998 colon
A549 NSCLC = tested on: A549 NSCLC
DU-145 prostate = tested on: DU-145 prostate
NCI-H460 NSCLC = tested on: NCI-H460 NSCLC
ACHN renal = tested on: ACHN renal
HL-60(TB) leukemia = tested on: HL-60(TB) leukemia
NCI-H23 lung = tested on: NCI-H23 lung
NCI-H522 lung = tested on: NCI-H522 lung
MCF7 breast = tested on: MCF7 breast
OVCAR-3 ovarian = tested on: OVCAR-3 ovarian
SNB-19 CNS = tested on: SNB-19 CNS
SK-OV-3 ovarian = tested on: SK-OV-3 ovarian
MDA-MB-231 breast = tested on: MDA-MB-231 breast
SW-620 colon = tested on: SW-620 colon
HOP-92 NSCLC = tested on: HOP-92 NSCLC
OVCAR-5 ovarian = tested on: OVCAR-5 ovarian

Work on CN1CCN(c2nc(C3=C(c4c[nH]c5ccccc45)C(=O)NC3=O)c3ccccc3n2)CC1 yielded a GI50 (MDA-MB-435 melanoma) of 16.6 µM, a TGI (MDA-MB-435 melanoma) of 30.2 µM and a GI50 (COLO 205 colon) of 6.82 µM. For the same compound, the TGI (COLO 205 colon) was 19.6 µM, the GI50 (SF-295 CNS) was 18.6 µM and the TGI (SF-295 CNS) was 32.7 µM. It also gave a GI50 (IGROV1 ovarian) of 18.1 µM, a TGI (IGROV1 ovarian) of 34.5 µM and a GI50 (A498 renal) of 15.3 µM. The TGI (A498 renal) was 28.6 µM, the GI50 (EKVX NSCLC) was 17.8 µM and the TGI (EKVX NSCLC) was 33.2 µM. The GI50 (T-47D breast) was 20.2 µM, the TGI (T-47D breast) was 35.7 µM and the GI50 (PC-3 prostate) was 17.5 µM. It also gave a TGI (PC-3 prostate) of 34.3 µM, a GI50 (UO-31 renal) of 17.9 µM and a TGI (UO-31 renal) of 44.9 µM. The GI50 (MALME-3M melanoma) was 4.68 µM, the TGI (MALME-3M melanoma) was 16.2 µM and the GI50 (SN12C renal) was 13.2 µM. The TGI (SN12C renal) was 26.3 µM, the GI50 (HS 578T breast) was 16.8 µM and the TGI (HS 578T breast) was 30.5 µM. The GI50 (UACC-62 melanoma) was 15.4 µM, the TGI (UACC-62 melanoma) was 28.8 µM and the GI50 (HOP-62 NSCLC) was 13.7 µM. The TGI (HOP-62 NSCLC) was 26.7 µM, the GI50 (UACC-257 melanoma) was 13.6 µM and the TGI (UACC-257 melanoma) was 26.5 µM. For the same compound, the GI50 (SK-MEL-28 melanoma) was 16.4 µM, the TGI (SK-MEL-28 melanoma) was 30 µM and the GI50 ([…]-0 renal) was 13.8 µM. The TGI (786-0 renal) was 26.9 µM, the GI50 (TK-10 renal) was 17.8 µM and the TGI (TK-10 renal) was 44.2 µM. For the same compound, the GI50 (HT29 colon) was 13.9 µM, the TGI (HT29 colon) was 27.4 µM and the GI50 (NCI-H226 lung) was 13.4 µM. For the same compound, the TGI (NCI-H226 lung) was 30.3 µM, the GI50 (U251 glioblastoma) was 16.1 µM and the TGI (U251 glioblastoma) was 29.9 µM. It also gave a GI50 (OVCAR-4 ovarian) of 21.8 µM, a TGI (OVCAR-4 ovarian) of 44.6 µM and a GI50 (MOLT-4 leukemia) of 13.1 µM. The TGI (MOLT-4 leukemia) was 25.8 µM, the GI50 (CCRF-CEM leukemia) was 13.1 µM and the TGI (CCRF-CEM leukemia) was 25.9 µM. For the same compound, the GI50 (RXF 393 renal) was 15.1 µM, the TGI (RXF 393 renal) was 28.4 µM and the GI50 (MDA-MB-468 breast) was 18.3 µM. It also gave a TGI (MDA-MB-468 breast) of 32.5 µM, a GI50 (SF-268 CNS) of 18.1 µM and a TGI (SF-268 CNS) of 32.3 µM. The GI50 (OVCAR-8 ovarian) was 13.8 µM, the TGI (OVCAR-8 ovarian) was 27.6 µM and the GI50 (BT-549 breast) was 13.5 µM. It also gave a TGI (BT-549 breast) of 26.3 µM, a GI50 (NCI-H322M lung) of 16.3 µM and a TGI (NCI-H322M lung) of 31.2 µM. It also gave a GI50 (NCI/ADR-RES ovarian) of 19.5 µM, a TGI (NCI/ADR-RES ovarian) of 41.3 µM and a GI50 (SK-MEL-5 melanoma) of 5.58 µM. The TGI (SK-MEL-5 melanoma) was 18.7 µM, the GI50 (SR leukemia) was 7.06 µM and the TGI (SR leukemia) was 19.7 µM. It also gave a GI50 (CAKI-1 renal) of 16.3 µM, a TGI (CAKI-1 renal) of 32.3 µM and a GI50 (SNB-75 CNS) of 19.9 µM. For the same compound, the TGI (SNB-75 CNS) was 37.3 µM, the GI50 (M14 melanoma) was 13.9 µM and the TGI (M14 melanoma) was 26.8 µM. It also gave a GI50 (HCT-15 colon) of 12.1 µM, a TGI (HCT-15 colon) of 28.4 µM and a GI50 (KM12 colon) of 3.7 µM. For the same compound, the TGI (KM12 colon) was 15.4 µM, the GI50 (K-562 leukemia) was 12.2 µM and the TGI (K-562 leukemia) was 24.7 µM. For the same compound, the GI50 (SF-539 CNS) was 15 µM, the TGI (SF-539 CNS) was 28.3 µM and the GI50 (RPMI-8226 leukemia) was 10.1 µM. It also gave a TGI (RPMI-8226 leukemia) of 21.7 µM, a GI50 (LOX IMVI melanoma) of 16.1 µM and a TGI (LOX IMVI melanoma) of 29.7 µM. For the same compound, the GI50 (HCC-2998 colon) was 17.7 µM, the TGI (HCC-2998 colon) was 31.6 µM and the GI50 (A549 NSCLC) was 16.9 µM. The TGI (A549 NSCLC) was 36.6 µM, the GI50 (DU-145 prostate) was 16.3 µM and the TGI (DU-145 prostate) was 32.6 µM. It also gave a GI50 (NCI-H460 NSCLC) of 18.6 µM, a TGI (NCI-H460 NSCLC) of 32.6 µM and a GI50 (ACHN renal) of 15.5 µM. The TGI (ACHN renal) was 30 µM, the GI50 (HL-60(TB) leukemia) was 15 µM and the TGI (HL-60(TB) leukemia) was 28.2 µM. For the same compound, the GI50 (NCI-H23 lung) was 16.1 µM, the TGI (NCI-H23 lung) was 29.8 µM and the GI50 (NCI-H522 lung) was 15.4 µM. It also gave a TGI (NCI-H522 lung) of 28.7 µM, a GI50 (MCF7 breast) of 10.9 µM and a TGI (MCF7 breast) of 23 µM. It also gave a GI50 (OVCAR-3 ovarian) of 15.8 µM, a TGI (OVCAR-3 ovarian) of 30.7 µM and a GI50 (SNB-19 CNS) of 19.8 µM. For the same compound, the TGI (SNB-19 CNS) was 39.5 µM, the GI50 (SK-OV-3 ovarian) was 18.1 µM and the TGI (SK-OV-3 ovarian) was 38.8 µM. The GI50 (MDA-MB-231 breast) was 15.4 µM, the TGI (MDA-MB-231 breast) was 30.7 µM and the GI50 (SW-620 colon) was 18.5 µM. It also gave a TGI (SW-620 colon) of 32.6 µM, a GI50 (HOP-92 NSCLC) of 15.8 µM and a TGI (HOP-92 NSCLC) of 29.4 µM. For the same compound, the GI50 (OVCAR-5 ovarian) was 20.8 µM and the TGI (OVCAR-5 ovarian) was 44 µM.
